Test results published in patent publication US20090208960A1, “METHODS FOR IDENTIFYNG CELLULAR MODULATORS OF DISAGGREGATION ACTIVITY OR AGGREGATION ACTIVITY IN AN ANIMAL” (priority 2006, published 2009).

Legend:
[1] = tested on: proteasome activity of worm PDS; assay: Proteasome activity of worm PDS with substrate Z-GGL-AMC; assay type: biochemical, Caenorhabditis elegans; settings: 10 μM; wild-type worm (N2) PDS 0.5 μg/μl
Procedure: The synthetic proteasome substrate Z-GGL-AMC was used according to the manufacturer's (Calbiochem) instructions to follow proteasome activity of wild-type worms (strain N2) PDS (0.5 μg/μl).

Procedure for PC12 cells: Viability of rat adrenal pheochromocytoma (PC12) cells were discerned by the MTT assay (Bucciantini et al., Nature 416: 507, 2002), and normalized to cell survival when incubated in the absence of Aβ1-40.
Using the disaggregation assay and conditions as in B, and 72 h incubation, Aβ1-40 disaggregation samples (500 nM) were added to PC12 cell culture medium for 3 days. Cell viability was assayed by MTT metabolic activity.

CC[C@H](C)[C@H](NC(=O)[C@H]([C@@H](C)CC)N(C)C(C)=O)C(=O)N[C@H](C(=O)N[C@@H](CC(C)C)C(=O)[C@@]1(C)CO1)[C@@H](C)O [Epoxomicin]
proteasome activity of worm PDS [1]: effectively inhibits proteasome activity

Monomeric Aβ1-40 peptide: Aβ1-40 peptide purchased from Synpep
toxicity on PC12 cells (PC12 cells): did not exhibit toxicity
